Laboratory results taken from ChEMBL document CHEMBL4219110, “Structure optimization and preliminary bioactivity evaluation of N-hydroxybenzamide-based HDAC inhibitors with Y-shaped cap” (Bioorg Med Chem, 2018).

Tested on: U-937
Assay: Antiproliferative activity against human U937 cells after 48 hrs by MTT assay
Assay type: functional, cell-based
Details: U-937, 48 h

IC50 [nM] | Structure (SMILES)
510 | O=C(/C=C/c1ccc(C(=O)NO)cc1)N[C@@H](Cc1c[nH]c2ccccc12)C(=O)Nc1ccc(Br)cc1
930 | O=C(/C=C/c1ccc(C(=O)NO)cc1)N[C@@H](Cc1c[nH]c2ccccc12)C(=O)Nc1ccc(Cl)cc1
630 | O=C(/C=C/c1ccc(C(=O)NO)cc1)N[C@@H](Cc1c[nH]c2ccccc12)C(=O)Nc1ccc(F)cc1
660 | O=C(/C=C/c1ccc(C(=O)NO)cc1)N[C@@H](Cc1c[nH]c2ccccc12)C(=O)Nc1cccc(Cl)c1

Target: T1, Histone deacetylase 8 (Homo sapiens, UniProt Q9BY41)
T1 sequence (Q9BY41 whole entry): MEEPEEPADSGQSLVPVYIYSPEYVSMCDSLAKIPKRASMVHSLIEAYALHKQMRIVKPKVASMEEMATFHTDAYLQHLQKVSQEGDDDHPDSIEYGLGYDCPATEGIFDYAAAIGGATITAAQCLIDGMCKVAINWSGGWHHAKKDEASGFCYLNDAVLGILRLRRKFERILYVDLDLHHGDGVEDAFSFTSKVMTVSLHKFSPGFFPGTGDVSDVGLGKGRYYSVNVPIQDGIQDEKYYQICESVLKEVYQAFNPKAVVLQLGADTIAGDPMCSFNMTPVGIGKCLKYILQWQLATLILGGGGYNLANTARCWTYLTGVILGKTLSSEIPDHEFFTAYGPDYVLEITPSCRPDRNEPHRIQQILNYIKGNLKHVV
Assay: Inhibition of HDAC8 (unknown origin) using Ac-Leu-GlyLys(Ac)-AMC as substrate preincubated for 5 mins followed by substrate addition measured after 30 mins by fluorescence assay
Details: not given

IC50 [nM] | Structure (SMILES)
354 | O=C(/C=C/c1ccc(C(=O)NO)cc1)N[C@@H](Cc1c[nH]c2ccccc12)C(=O)Nc1ccc(Br)cc1
47.3 | O=C(/C=C/c1ccc(C(=O)NO)cc1)N[C@@H](Cc1c[nH]c2ccccc12)C(=O)Nc1ccc(Cl)cc1
132 | O=C(/C=C/c1ccc(C(=O)NO)cc1)N[C@@H](Cc1c[nH]c2ccccc12)C(=O)Nc1cccc(Cl)c1

Tested on: not listed separately
Assay: Antiproliferative activity against human SK-N-BE(2) cells after 48 hrs by MTT assay
Assay type: functional, cell-based
Details: SKNBE2, 48 h

Structure (SMILES) | IC50 [nM]
O=C(/C=C/c1ccc(C(=O)NO)cc1)N[C@@H](Cc1c[nH]c2ccccc12)C(=O)Nc1ccc(Br)cc1 | 620
O=C(/C=C/c1ccc(C(=O)NO)cc1)N[C@@H](Cc1c[nH]c2ccccc12)C(=O)Nc1ccc(Cl)cc1 | 1590
O=C(/C=C/c1ccc(C(=O)NO)cc1)N[C@@H](Cc1c[nH]c2ccccc12)C(=O)Nc1ccc(F)cc1 | 1320
O=C(/C=C/c1ccc(C(=O)NO)cc1)N[C@@H](Cc1c[nH]c2ccccc12)C(=O)Nc1cccc(Cl)c1 | 600

Tested on: Jurkat
Assay: Antiproliferative activity against human Jurkat cells after 48 hrs by MTT assay
Assay type: functional, cell-based
Details: not given

IC50 [nM] | Structure (SMILES)
780 | O=C(/C=C/c1ccc(C(=O)NO)cc1)N[C@@H](Cc1c[nH]c2ccccc12)C(=O)Nc1ccc(Br)cc1
2680 | O=C(/C=C/c1ccc(C(=O)NO)cc1)N[C@@H](Cc1c[nH]c2ccccc12)C(=O)Nc1ccc(Cl)cc1
980 | O=C(/C=C/c1ccc(C(=O)NO)cc1)N[C@@H](Cc1c[nH]c2ccccc12)C(=O)Nc1ccc(F)cc1
400 | O=C(/C=C/c1ccc(C(=O)NO)cc1)N[C@@H](Cc1c[nH]c2ccccc12)C(=O)Nc1cccc(Cl)c1

Tested on: HEL
Assay: cells
Details: Homo sapiens, 48 h
Description: Antiproliferative activity against human HEL cells after 48 hrs by MTT assay

IC50 [nM] | Structure (SMILES)
440 | O=C(/C=C/c1ccc(C(=O)NO)cc1)N[C@@H](Cc1c[nH]c2ccccc12)C(=O)Nc1ccc(Br)cc1
1150 | O=C(/C=C/c1ccc(C(=O)NO)cc1)N[C@@H](Cc1c[nH]c2ccccc12)C(=O)Nc1ccc(Cl)cc1
990 | O=C(/C=C/c1ccc(C(=O)NO)cc1)N[C@@H](Cc1c[nH]c2ccccc12)C(=O)Nc1ccc(F)cc1

Further lines, the molecule ahead of its results:

Structure (SMILES) | IC50 [nM]
O=C(CCCCCCC(=O)Nc1ccccc1)NO [VORINOSTAT] | 790
O=C(/C=C/c1ccc(C(=O)NO)cc1)N[C@@H](Cc1c[nH]c2ccccc12)C(=O)Nc1cccc(Cl)c1 | 490

Tested on: HeLa
Assay: cells
Details: Homo sapiens, 48 h

IC50 [nM] | Structure (SMILES)
1200 | O=C(/C=C/c1ccc(C(=O)NO)cc1)N[C@@H](Cc1c[nH]c2ccccc12)C(=O)Nc1ccc(Br)cc1
1450 | O=C(/C=C/c1ccc(C(=O)NO)cc1)N[C@@H](Cc1c[nH]c2ccccc12)C(=O)Nc1ccc(Cl)cc1
1570 | O=C(/C=C/c1ccc(C(=O)NO)cc1)N[C@@H](Cc1c[nH]c2ccccc12)C(=O)Nc1ccc(F)cc1

More lines, now with the values behind:

Structure (SMILES) | IC50 [nM]
O=C(CCCCCCC(=O)Nc1ccccc1)NO [VORINOSTAT] | 1840
O=C(/C=C/c1ccc(C(=O)NO)cc1)N[C@@H](Cc1c[nH]c2ccccc12)C(=O)Nc1cccc(Cl)c1 | 1660

Target: T2, Protein deacetylase HDAC6 (Homo sapiens, UniProt Q9UBN7)
T2 sequence (Q9UBN7 whole entry): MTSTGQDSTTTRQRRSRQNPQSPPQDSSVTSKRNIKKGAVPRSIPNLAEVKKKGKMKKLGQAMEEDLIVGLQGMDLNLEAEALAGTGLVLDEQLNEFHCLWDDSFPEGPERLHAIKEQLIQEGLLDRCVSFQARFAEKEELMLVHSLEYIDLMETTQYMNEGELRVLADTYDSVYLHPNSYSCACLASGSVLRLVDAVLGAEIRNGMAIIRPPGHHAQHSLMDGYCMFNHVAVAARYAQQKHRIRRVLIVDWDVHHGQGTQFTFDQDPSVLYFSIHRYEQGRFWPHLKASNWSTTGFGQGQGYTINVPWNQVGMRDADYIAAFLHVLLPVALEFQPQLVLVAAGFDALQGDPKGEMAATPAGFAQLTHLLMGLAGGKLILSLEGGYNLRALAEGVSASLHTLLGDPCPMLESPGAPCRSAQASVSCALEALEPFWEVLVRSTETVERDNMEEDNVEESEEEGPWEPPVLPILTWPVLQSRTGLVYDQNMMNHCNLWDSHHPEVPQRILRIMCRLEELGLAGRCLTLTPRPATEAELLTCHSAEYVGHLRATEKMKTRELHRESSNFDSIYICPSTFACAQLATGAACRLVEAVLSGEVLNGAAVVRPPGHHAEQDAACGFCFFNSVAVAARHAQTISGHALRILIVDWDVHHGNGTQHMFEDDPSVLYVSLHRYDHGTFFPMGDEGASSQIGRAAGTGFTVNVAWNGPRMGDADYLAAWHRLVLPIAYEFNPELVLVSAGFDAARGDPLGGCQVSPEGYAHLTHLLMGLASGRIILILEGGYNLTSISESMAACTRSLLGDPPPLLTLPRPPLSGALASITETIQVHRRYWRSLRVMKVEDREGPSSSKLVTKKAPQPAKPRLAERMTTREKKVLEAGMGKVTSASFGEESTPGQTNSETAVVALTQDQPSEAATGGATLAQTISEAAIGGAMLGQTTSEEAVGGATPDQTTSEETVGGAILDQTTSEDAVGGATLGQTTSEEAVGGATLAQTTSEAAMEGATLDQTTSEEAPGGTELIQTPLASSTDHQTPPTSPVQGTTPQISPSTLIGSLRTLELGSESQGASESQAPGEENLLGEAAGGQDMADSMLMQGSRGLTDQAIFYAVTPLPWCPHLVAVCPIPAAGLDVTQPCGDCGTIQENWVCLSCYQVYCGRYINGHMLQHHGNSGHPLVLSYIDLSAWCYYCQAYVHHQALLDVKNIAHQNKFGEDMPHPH
Assay: Inhibition of HDAC6 (unknown origin) using Ac-Leu-GlyLys(Ac)-AMC as substrate preincubated for 5 mins followed by substrate addition measured after 30 mins by fluorescence assay
Details: not given

IC50 [nM] | Structure (SMILES)
127 | O=C(/C=C/c1ccc(C(=O)NO)cc1)N[C@@H](Cc1c[nH]c2ccccc12)C(=O)Nc1ccc(Br)cc1
12.6 | O=C(/C=C/c1ccc(C(=O)NO)cc1)N[C@@H](Cc1c[nH]c2ccccc12)C(=O)Nc1ccc(Cl)cc1
51.6 | O=C(/C=C/c1ccc(C(=O)NO)cc1)N[C@@H](Cc1c[nH]c2ccccc12)C(=O)Nc1cccc(Cl)c1

Target: Histone deacetylase 1 (Homo sapiens, UniProt Q13547)
Sequence (Q13547 whole entry): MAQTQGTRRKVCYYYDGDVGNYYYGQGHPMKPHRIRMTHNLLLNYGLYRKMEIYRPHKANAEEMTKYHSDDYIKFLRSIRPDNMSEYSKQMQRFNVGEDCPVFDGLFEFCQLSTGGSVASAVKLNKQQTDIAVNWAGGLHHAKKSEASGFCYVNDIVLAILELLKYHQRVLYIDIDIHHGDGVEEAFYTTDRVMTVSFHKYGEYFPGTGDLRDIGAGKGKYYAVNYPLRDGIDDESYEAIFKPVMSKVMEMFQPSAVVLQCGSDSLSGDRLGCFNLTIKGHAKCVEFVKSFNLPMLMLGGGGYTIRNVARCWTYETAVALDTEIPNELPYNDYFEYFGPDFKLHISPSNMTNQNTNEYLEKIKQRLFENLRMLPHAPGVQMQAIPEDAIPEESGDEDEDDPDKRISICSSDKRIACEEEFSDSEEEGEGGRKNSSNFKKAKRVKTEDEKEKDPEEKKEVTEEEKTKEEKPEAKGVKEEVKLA
Assay: Inhibition of HDAC1 (unknown origin) using Ac-Leu-GlyLys(Ac)-AMC as substrate preincubated for 5 mins followed by substrate addition measured after 30 mins by fluorescence assay
Details: not given

IC50 [nM] | Structure (SMILES)
45.3 | O=C(/C=C/c1ccc(C(=O)NO)cc1)N[C@@H](Cc1c[nH]c2ccccc12)C(=O)Nc1ccc(Br)cc1
54.7 | O=C(/C=C/c1ccc(C(=O)NO)cc1)N[C@@H](Cc1c[nH]c2ccccc12)C(=O)Nc1ccc(Cl)cc1
22.9 | O=C(/C=C/c1ccc(C(=O)NO)cc1)N[C@@H](Cc1c[nH]c2ccccc12)C(=O)Nc1cccc(Cl)c1

Target: Histone deacetylase
Assay: Inhibition of HDAC in human HeLa cell nuclear extract using Boc-Lys (acetyl)-AMC as substrate preincubated for 5 mins followed by substrate addition measured after 30 mins by fluorescence assay
Assay type: protein assay
Details: not given

IC50 [nM] | Structure (SMILES)
22.5 | Cc1ccc(NC(=O)[C@H](Cc2c[nH]c3ccccc23)NC(=O)/C=C/c2ccc(C(=O)NO)cc2)cc1
2 | O=C(/C=C/c1ccc(C(=O)NO)cc1)N[C@@H](Cc1c[nH]c2ccccc12)C(=O)Nc1ccc(Br)cc1
5.7 | O=C(/C=C/c1ccc(C(=O)NO)cc1)N[C@@H](Cc1c[nH]c2ccccc12)C(=O)Nc1ccc(Cl)cc1
2 | O=C(/C=C/c1ccc(C(=O)NO)cc1)N[C@@H](Cc1c[nH]c2ccccc12)C(=O)Nc1ccc(F)cc1

The next lines start with the molecule.

Structure (SMILES) | IC50 [nM]
O=C(/C=C/c1ccc(C(=O)NO)cc1)N[C@@H](Cc1c[nH]c2ccccc12)C(=O)Nc1ccccc1 | 7.6
O=C(/C=C/c1ccc(C(=O)NO)cc1)N[C@@H](Cc1c[nH]c2ccccc12)C(=O)NCCc1ccccc1 | 21.8
O=C(/C=C/c1ccc(C(=O)NO)cc1)N[C@@H](Cc1c[nH]c2ccccc12)C(=O)Nc1ccncc1 | 36.9
O=C(/C=C/c1ccc(C(=O)NO)cc1)N[C@@H](Cc1c[nH]c2ccccc12)C(=O)NCc1ccccc1 | 37.3
O=C(/C=C/c1ccc(C(=O)NO)cc1)N[C@@H](Cc1c[nH]c2ccccc12)C(=O)Nc1cccc(Cl)c1 | 8.1

Target: T3, Histone deacetylase 11 (Homo sapiens, UniProt Q96DB2)
T3 sequence (Q96DB2 whole entry): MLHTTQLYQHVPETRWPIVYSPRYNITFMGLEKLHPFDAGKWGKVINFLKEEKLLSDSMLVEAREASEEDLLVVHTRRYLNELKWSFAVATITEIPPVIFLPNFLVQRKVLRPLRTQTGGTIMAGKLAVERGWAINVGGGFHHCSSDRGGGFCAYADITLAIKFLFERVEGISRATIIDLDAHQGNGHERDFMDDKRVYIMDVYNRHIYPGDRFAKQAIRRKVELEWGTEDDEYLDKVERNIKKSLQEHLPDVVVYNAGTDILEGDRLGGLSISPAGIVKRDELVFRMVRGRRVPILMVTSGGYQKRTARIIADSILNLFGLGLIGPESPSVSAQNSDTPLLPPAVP
Assay: Inhibition of HDAC11 (unknown origin) using Ac-Leu-GlyLys(Ac)-AMC as substrate preincubated for 5 mins followed by substrate addition measured after 30 mins by fluorescence assay
Details: not given

IC50 [nM] | Structure (SMILES)
176 | O=C(/C=C/c1ccc(C(=O)NO)cc1)N[C@@H](Cc1c[nH]c2ccccc12)C(=O)Nc1ccc(Br)cc1
15.8 | O=C(/C=C/c1ccc(C(=O)NO)cc1)N[C@@H](Cc1c[nH]c2ccccc12)C(=O)Nc1ccc(Cl)cc1
76.3 | O=C(/C=C/c1ccc(C(=O)NO)cc1)N[C@@H](Cc1c[nH]c2ccccc12)C(=O)Nc1cccc(Cl)c1

Tested on: MOLT-4
Assay: Antiproliferative activity against human MOLT4 cells after 48 hrs by MTT assay
Assay type: functional, cell-based
Details: MOLT-4, 48 h

IC50 [nM] | Structure (SMILES)
470 | O=C(/C=C/c1ccc(C(=O)NO)cc1)N[C@@H](Cc1c[nH]c2ccccc12)C(=O)Nc1ccc(Br)cc1
680 | O=C(/C=C/c1ccc(C(=O)NO)cc1)N[C@@H](Cc1c[nH]c2ccccc12)C(=O)Nc1ccc(Cl)cc1
840 | O=C(/C=C/c1ccc(C(=O)NO)cc1)N[C@@H](Cc1c[nH]c2ccccc12)C(=O)Nc1ccc(F)cc1
670 | O=C(/C=C/c1ccc(C(=O)NO)cc1)N[C@@H](Cc1c[nH]c2ccccc12)C(=O)Nc1cccc(Cl)c1
